What all share (format): biochemical
One assay addresses thrombin (Homo sapiens, UniProt P00734). The assay is described as follows: Chromogenic kinetic enzyme assay of thrombin. The conditions noted are these: Table 4.1; read-out: Thrombin Ki. The procedure, abridged: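 Recombinant human thrombin (0.15 nM) or Factor Xa (0.35 nM) was mixed with 11-point inhibitor dilutions (0–20 μM, 2% DMSO) in TNC buffer, pH 8. Kinetic absorbance at 405 nm gave velocities. IC50 came from a four-parameter fit and Ki from Cheng–Prusoff.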

The next assay concerns the target T1, hepsin (Homo sapiens, UniProt P05981).
T1 construct: purchased R&D Systems 4776-SE-010
The experiment in a line: Fluorescent kinetic enzyme inhibitor assay of hepsin. As to conditions: for IC50: Table 4.1. The procedure, abridged:
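Fluorescence (ex 380/em 460 nm) followed kinetically at room temperature; IC50 from four-parameter fit of mean velocity versus concentration, averaged over three experiments.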

The next assay concerns the target T2, HGFA (Homo sapiens, UniProt Q04756).
T2 construct: His6 tag (N); seven amino acid spacer and seven amino acid TEV cleavage site (N); Honey Bee melittin signal peptide (N); made in house; host or cells: High 5 insect cells (baculovirus; virus raised in Sf9)
T2 sequence (Q04756 373-655): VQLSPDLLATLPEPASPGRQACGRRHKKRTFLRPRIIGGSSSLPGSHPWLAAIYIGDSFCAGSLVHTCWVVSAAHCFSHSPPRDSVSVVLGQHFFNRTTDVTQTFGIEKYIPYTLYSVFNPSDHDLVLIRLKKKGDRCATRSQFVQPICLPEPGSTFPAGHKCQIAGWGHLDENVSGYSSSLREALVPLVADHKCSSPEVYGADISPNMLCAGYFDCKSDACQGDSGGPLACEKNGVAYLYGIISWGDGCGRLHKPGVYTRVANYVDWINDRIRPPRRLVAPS
The experiment in a line: Fluorescent kinetic enzyme inhibitor assay of HGFA. Put shortly: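 Recombinant His-tagged HGFA residues 373-655 from insect cells, with substrate at Km. Inhibitors in 11-point dilutions, 0-20 μM final, 2% DMSO, fluorescence (ex 380/em 460 nm) followed over time at room temperature. IC50 from four-parameter fit of mean velocity, average of three experiments.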

[1] abbreviates: Table 4.2, Boc-QAR-AMC substrate, read-out: Hepsin Ki.
Where [2] appears, read: Table 4.2, Boc-QLR-AMC substrate, read-out: HGFA Ki.

Like-named read-outs stand apart in the source and are kept apart here.

By Ki is commonly meant a dissociation constant, usually derived from enzyme kinetics or from competition with a known ligand. The term IC50 denotes the concentration needed to halve the response being measured.

T1 sequence (P05981 163-417 limits assumed): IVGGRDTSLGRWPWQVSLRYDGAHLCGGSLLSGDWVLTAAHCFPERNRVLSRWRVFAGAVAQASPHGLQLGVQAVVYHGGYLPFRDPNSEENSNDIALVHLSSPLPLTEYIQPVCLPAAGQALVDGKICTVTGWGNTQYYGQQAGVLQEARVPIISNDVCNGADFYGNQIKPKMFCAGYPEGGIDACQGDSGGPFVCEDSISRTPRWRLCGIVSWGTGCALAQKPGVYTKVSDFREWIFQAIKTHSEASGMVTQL
T1 sequence (P05981 45-162 partner limits assumed): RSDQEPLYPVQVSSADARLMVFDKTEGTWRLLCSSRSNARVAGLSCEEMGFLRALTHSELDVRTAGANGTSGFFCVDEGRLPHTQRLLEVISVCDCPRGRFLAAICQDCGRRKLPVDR

Turning to `CC(=O)N[C@@H](CCCCN)C(=O)N[C@@H](CCC(N)=O)C(=O)N[C@@H](CC(C)C)C(=O)N[C@@H](CCCNC(=N)N)C(=O)c1nccs1` [Compound 5, Ac-KQLR(SEQ ID NO: 1)-kt], the Ki was above 20000 nM on thrombin, 0.19 nM at hepsin (setting [1]), 70 nM at HGFA (setting [2]) and 53 nM on HGFA (read-out: Ki for HGFA). At hepsin, the “fold more potent for hepsin versus HGFA” value came out at 200 fold. Also, the IC50 on hepsin worked out at 2 nM.
Turning to `CC(=O)N[C@@H](CCCCN)C(=O)N[C@@H](CCC(N)=O)C(=O)N[C@@H](Cc1ccccc1)C(=O)N[C@@H](CCCNC(=N)N)C(=O)c1nccs1` [Compound 5c, Ac-KQFR(SEQ ID NO: 4)-kt], the Ki at thrombin was above 20000 nM; on hepsin (setting [1]), 0.58 nM; at HGFA (setting [2]) it was 58 nM.
For the compound `CC(=O)N[C@@H](CCCNC(=N)N)C(=O)N[C@@H](CCC(N)=O)C(=O)N[C@@H](CC(C)C)C(=O)N[C@@H](CCCNC(=N)N)C(=O)c1nccs1` [Compound 5e, Ac-RQLR(SEQ ID NO: 6)-kt], the Ki at thrombin is above 20000 nM; on HGFA (setting [2]), 60 nM. The concentration for half-maximal inhibition (IC50) on hepsin was determined as 1 nM.
For `CC(=O)N[C@@H](CCCCN)C(=O)N[C@@H](CCCNC(=N)N)C(=O)N[C@@H](CC(C)C)C(=O)N[C@@H](CCCNC(=N)N)C(=O)c1nccs1` [Compound 5g, Ac-KRLR(SEQ ID NO: 8)-kt], on hepsin, the IC50 is 5 nM. In addition, the Ki at HGFA (setting [2]) amounted to 12 nM.
For `CC(=O)N[C@@H](Cc1c[nH]c2ccccc12)C(=O)N[C@@H](CCCNC(=N)N)C(=O)N[C@@H](CC(C)C)C(=O)N[C@@H](CCCNC(=N)N)C(=O)c1nccs1` [Compound 5h, Ac-WRLR(SEQ ID NO: 9)-kt], the IC50 on hepsin was found to be 0.3 nM. Also, the values for the Ki at hepsin (setting [1]) and on HGFA (setting [2]) were 0.21 nM and 21 nM, respectively.
On to `CC(=O)N[C@@H](CO)C(=O)N[C@@H](CCCCN)C(=O)N[C@@H](CC(C)C)C(=O)N[C@@H](CCCNC(=N)N)C(=O)c1nccs1` [Compound 6, Ac-SKLR(SEQ ID NO: 10)-kt], for which the values for the Ki on thrombin, on hepsin (setting [1]) and on HGFA (read-out: Ki for HGFA) were above 20000 nM, 1.2 nM and 81 nM, respectively. For the same compound, the “fold more potent for hepsin versus HGFA” value at hepsin worked out at 70 fold.
Regarding `CC(=O)N[C@@H](CO)C(=O)N[C@@H](CCCCN)C(=O)N[C@@H](Cc1ccccc1)C(=O)N[C@@H](CCCNC(=N)N)C(=O)c1nccs1` [Compound 6c, Ac-SKFR(SEQ ID NO: 13)-kt], the Ki is above 2000 nM at thrombin and 57 nM at HGFA (setting [2]). Moreover, the IC50 on hepsin came to 51 nM. The “selectivity among HGFA, matriptase and hepsin” value (shortened to “selectivity among HGFA”) at HGFA is “HGFA selectivity over both hepsin and matriptase”.
As to `CC(=O)N[C@@H](CO)C(=O)N[C@@H](CCCNC(=N)N)C(=O)N[C@@H](CC(C)C)C(=O)N[C@@H](CCCNC(=N)N)C(=O)c1nccs1` [Compound 6e, Ac-SRLR(SEQ ID NO: 15)-kt], the IC50 at hepsin worked out at 5 nM. Also, the “selectivity among HGFA” value on HGFA was “HGFA selectivity over both hepsin and matriptase”. Besides, on HGFA (setting [2]), the Ki was found to be 24 nM.
Take `CC(=O)N[C@@H](CO)C(=O)N[C@@H](Cc1c[nH]c2ccccc12)C(=O)N[C@@H](CC(C)C)C(=O)N[C@@H](CCCNC(=N)N)C(=O)c1nccs1` [Compound 6g, Ac-SWLR(SEQ ID NO: 17)-kt]: the inhibition constant (Ki) on thrombin was found to be 3700 nM; on hepsin (read-out: Ki for hepsin) it was 1.2 nM; on HGFA (setting [2]), 63 nM; on HGFA (read-out: Ki for HGFA), 66 nM. Further, the IC50 on hepsin amounted to 9 nM. In addition, the “selectivity among HGFA” value on HGFA is “HGFA selectivity over both hepsin and matriptase”.
As to `N=C(N)c1ccc2cc(OC(=O)c3ccc(N=C(N)N)cc3)ccc2c1` [Nafamostat, reference compound], on hepsin, the 50% inhibitory concentration (IC50) was determined as 2 nM. Besides, the Ki on hepsin (setting [1]) worked out at 0.53 nM; on HGFA (setting [2]), 25 nM.

The values above are taken from patent publication US11130780B2, “Inhibitors of growth factor activation enzymes” (Washington University, priority 2015, dated 2021).
